Measured values taken from paper PMC9458111, “New 1,2,3-Triazole-Coumarin-Glycoside Hybrids and Their 1,2,4-Triazolyl Thioglycoside Analogs Targeting Mitochondria Apoptotic Pathway: Synthesis, Anticancer Activity and Docking Simulation” (Molecules, 2022).

What was measured:
[1] = tested on: human osteosarcoma (HOS cell lines); assay: MTT cytotoxicity assay, HOS; assay type: cell-based; conditions: for cytotoxicity at 100 µM: 48 h; for IC50: MTT, 0.78–100 µM, ± SD
Method: (§1) The synthesized compounds were studied for their cytotoxic activity against several human cancer cell lines, namely human osteosarcoma (HOS cell lines), human breast adenocarcinoma (MDA-MB-231 cell lines), human breast cancer (MCF-7 cell lines), human colorectal adenocarcinoma (Caco-2 cell lines) and human colon cell line (HCT-116 cell lines) using MTT assay at 100 µM, and the results were outlined as shown in Table 1.
(§2) Human osteosarcoma (HOS cell line), human breast adenocarcinoma (MDA-MB-231cell lines), human breast cancer (MCF-7 cell lines), human colorectal adenocarcinoma (Caco2 cell lines), human colon cell line (HCT-116 cell lines), normal human cell lines (BJ-1), and “a telomerase immortalized normal foreskin fibroblast cell line” were obtained from Karolinska Center, Department of Oncology and Pathology, Karolinska Institute and Hospital, Stockholm, Sweden.
(§3) Following culturing for 10 days, the cells were seeded at concentration of 10 × 10^3 cells per well in case of MCF-7 & MDA, 20 × 10^3 cells/well in a fresh complete growth medium in case of HCT-116, Caco2, & HOS and 40 × 10^3 cells/well in case of BJ-1 at 37 °C for 24 h in a water jacketed carbon dioxide incubator. After 48 h’ incubation, the medium was aspirated, and then 40 μl MTT salt (2.5 mg/mL) were added for a further 4 h; 200 μl 10% sodium dodecyl sulphate (SDS) in deionized water were added to each well and incubated overnight at 37 °C. The absorbance was measured at 595 nm with reference 690 nm. Doxorubicin was used as positive control, and 0.5% DMSO was used as negative control. IC50 values were calculated, using a probit analysis, and by utilizing the SPSS computer program (SPSS for Windows, statistical analysis software package/version 9/1989 SPSS Inc., Chicago, IL, USA).

[2] = tested on: human breast adenocarcinoma (MDA-MB-231 cell lines); assay: MTT cytotoxicity assay, MDA-MB-231; assay type: cell-based; conditions: for cytotoxicity at 100 µM: MDA-MB-231, 48 h
Method: as §1, §2, §3

[3] = tested on: human breast cancer (MCF-7 cell lines); assay: MTT cytotoxicity assay, MCF-7; assay type: cell-based; conditions: MCF7, 48 h
Method: as §1, §2, §3

[4] = tested on: human colorectal adenocarcinoma (Caco-2 cell lines); assay: MTT cytotoxicity assay, Caco-2; assay type: cell-based; conditions: Caco-2, 48 h
Method: as §1, §2, §3

[5] = tested on: human colon cell line (HCT-116 cell lines); assay: MTT cytotoxicity assay, HCT-116; assay type: cell-based; conditions: for cytotoxicity at 100 µM: HCT-116, 48 h
Method: as §1, §2, §3

[6] = tested on: normal human skin cell lines BJ-1; assay: Safety on normal human skin cells BJ-1 (MTT); assay type: cell-based; conditions: 100 µM
Method: To determine the selectivity and safety, all tested compounds were subjected to an assay for their safety upon normal human skin cell lines BJ-1 at a concentration of 100 µM.
as §2, §3

SMILES	melting point [°C]	cytotoxicity at 100 µM [1] [%]	cytotoxicity at 100 µM [2] [%]	cytotoxicity at 100 µM [3] [%]	cytotoxicity at 100 µM [4] [%]	cytotoxicity at 100 µM [5] [%]	Toxicity on normal skin cells BJ-1 (in words) [6]	IC50 [1] [µM]	IC50 ([2]; MDA-MB-231, MTT, 0.78–100 µM, ± SD) [µM]	IC50 ([5]; HCT-116, MTT, 0.78–100 µM, ± SD) [µM]
CC(=O)O[C@@H]1[C@@H](OC(C)=O)[C@H](OCc2cn(CCCOc3ccc4c(-c5ccccc5)cc(=O)oc4c3)nn2)OC[C@H]1OC(C)=O [Compound 22]	127 to 128	90.6 ± 1.5	97.1 ± 1.1	91.9 ± 0.8	57.5 ± 0.5	97.3 ± 0.8	high toxicity			
Cn1c(COc2ccc3c(-c4ccccc4)cc(=O)oc3c2)nnc1S[C@@H]1O[C@H](CO)[C@H](O)[C@H](O)[C@H]1O [Compound 7, 4-Phenyl-7-((4-methyl-5-(1-(β-D-galactopyranosyl)thio)-4H-1,2,4-triazol-3-yl)methoxy)-2H-chromen-2-one]		7.3 ± 0.3	15.5 ± 1.1	14.3 ± 0.2	35.7 ± 0.3	16.6 ± 0.8				
O=c1cc(-c2ccccc2)c2ccc(OCCCCI)cc2o1 [Compound 17, 7-(4-Iodobutoxy)-4-phenyl-2H-chromen-2-one]	143 to 145	50.8 ± 0.7	7.7 ± 0.4	38.5 ± 1.2	34.3 ± 0.3	38.2 ± 0.7				
CCn1c(COc2ccc3c(-c4ccccc4)cc(=O)oc3c2)n[nH]c1=S [Compound 1b]		92 ± 2.1	69.7 ± 2.4	88 ± 1.4	77.7 ± 0.8	81 ± 1.2	high toxicity			
CC(=O)OC[C@H]1O[C@@H](OCc2cn(CCCCOc3ccc4c(-c5ccccc5)cc(=O)oc4c3)nn2)[C@H](OC(C)=O)[C@@H](OC(C)=O)[C@H]1OC(C)=O [Compound 23]	118 to 119	0	28.6 ± 0.2	35.2 ± 0.3	13.6 ± 0.4	30.4 ± 0.7				
O=c1cc(-c2ccccc2)c2ccc(OCCCCn3cc(CO[C@@H]4O[C@H](CO)[C@H](O)[C@H](O)[C@H]4O)nn3)cc2o1 [Compound 26]	195 to 196	66.9 ± 2.2	31.4 ± 0.5	91.8 ± 1.2	2.6 ± 0.2	83.9 ± 0.9	high toxicity			
[N-]=[N+]=NCCCCOc1ccc2c(-c3ccccc3)cc(=O)oc2c1 [Compound 19, 7-(4-Azidobutoxy)-4-phenyl-2H-chromen-2-one]	114 to 116									
Cn1c(COc2ccc3c(-c4ccccc4)cc(=O)oc3c2)n[nH]c1=S [Compound 1a]		42.5 ± 1.2	24.1 ± 1.4	15.6 ± 0.2	34.8 ± 1.3	16.8 ± 0.1				
O=c1cc(-c2ccccc2)c2ccc(O)cc2o1 [Compound 15, 7-hydroxy-4-phenyl-2H-chromen-2-one]		62.7 ± 1.5	34.5 ± 0.4	36.8 ± 1.1	46.1 ± 0.6	89.3 ± 0.7		88.3 ± 2.2		46 ± 2.2

Second part, led by results:

melting point [°C]	SMILES	cytotoxicity at 100 µM [1] [%]	cytotoxicity at 100 µM [2] [%]	cytotoxicity at 100 µM [3] [%]	cytotoxicity at 100 µM [4] [%]	cytotoxicity at 100 µM [5] [%]	Toxicity on normal skin cells BJ-1 (in words) [6]	IC50 [1] [µM]	IC50 ([2]; MDA-MB-231, MTT, 0.78–100 µM, ± SD) [µM]	IC50 ([5]; HCT-116, MTT, 0.78–100 µM, ± SD) [µM]
132 to 133	CC(=O)O[C@@H]1[C@@H](OC(C)=O)[C@H](Sc2nnc(COc3ccc4c(-c5ccccc5)cc(=O)oc4c3)n2C)OC[C@H]1OC(C)=O [Compound 4, 4-Phenyl-7-((4-methyl-5-(1-(2,3,4-tri-O-acetyl-β-D-xylopyranosyl)thio)-4H-1,2,4-triazol-3-yl)methoxy)-2H-chromen-2-one]	45.5 ± 0.6	36.9 ± 1.2	17.1 ± 0.3	24.9 ± 0.6	15 ± 0.6				
110 to 111	[N-]=[N+]=NCCCOc1ccc2c(-c3ccccc3)cc(=O)oc2c1 [Compound 18, 7-(3-Azidopropoxy)-4-phenyl-2H-chromen-2-one]									
127 to 128	CCn1c(COc2ccc3c(-c4ccccc4)cc(=O)oc3c2)nnc1S[C@@H]1OC[C@@H](OC(C)=O)[C@H](OC(C)=O)[C@H]1OC(C)=O [Compound 6, 4-Phenyl-7-((4-ethyl-5-(1-(2,3,4-tri-O-acetyl-β-D-xylopyranosyl)thio)-4H-1,2,4-triazol-3-yl)methoxy)-2H-chromen-2-one]	33.1 ± 0.2	7.4 ± 0.3	14.3 ± 0.1	30.1 ± 0.1	18.9 ± 0.6				
188 to 189	O=c1cc(-c2ccccc2)c2ccc(OCCCn3cc(CO[C@@H]4OC[C@@H](O)[C@H](O)[C@H]4O)nn3)cc2o1 [Compound 25]	90.4 ± 0.8	94.2 ± 2.2	81.9 ± 0.9	82.7 ± 1.1	97.1 ± 1.1	high toxicity			
152 to 153	CCn1c(COc2ccc3c(-c4ccccc4)cc(=O)oc3c2)nnc1SCCOCCO [Compound 12, 4-Phenyl-7-((4-ethyl-5-((2-(2-hydroxyethoxy)ethyl)thio)-4H-1,2,4-triazol-3-yl)methoxy)-2H-chromen-2-one]	97.2 ± 1.3	91.2 ± 0.8	97.6 ± 0.9	92 ± 1.3	84.4 ± 0.8	high toxicity			
184 to 185	CCn1c(COc2ccc3c(-c4ccccc4)cc(=O)oc3c2)nnc1S[C@@H]1O[C@H](CO)[C@H](O)[C@H](O)[C@H]1O [Compound 9, 4-Phenyl-7-((4-ethyl-5-(1-(β-D-galactopyranosyl)thio)-4H-1,2,4-triazol-3-yl)meth-oxy)-2H-chromen-2-one]	20.4 ± 0.4	27.7 ± 0.4	37.8 ± 0.3	1.7 ± 0.1	22.7 ± 0.9				
190 to 191	O=c1cc(-c2ccccc2)c2ccc(OCCCn3cc(CO[C@@H]4O[C@H](CO)[C@H](O)[C@H](O)[C@H]4O)nn3)cc2o1 [Compound 24]	97.6 ± 1.3	97.7 ± 0.8	88.2 ± 1.1	86.5 ± 0.9	99.1 ± 0.8	high toxicity			
211 to 213	CC(=O)OC[C@H]1O[C@@H](Sc2nnc(COc3ccc4c(-c5ccccc5)cc(=O)oc4c3)n2C)[C@H](OC(C)=O)[C@@H](OC(C)=O)[C@H]1OC(C)=O [Compound 3, 4-Phenyl-7-((4-methyl-5-(1-(2,3,4,6-tetra-O-acetyl-β-D-galactopyranosyl)thio)-4H-1,2,4-triazol-3-yl)methoxy)-2H-chromen-2-one]	18.4 ± 0.7	15.4 ± 0.5	9.8 ± 0.6	23.2 ± 1.1	11.1 ± 0.4				
170 to 171	Cn1c(COc2ccc3c(-c4ccccc4)cc(=O)oc3c2)nnc1SCC(O)CO (centres unmarked) [Compound 13, 4-Phenyl-7-((5-((2,3-dihydroxypropyl)thio)-4-methyl-4H-1,2,4-triazol-3-yl)meth-oxy)-2H-chromen-2-one]	2.8 ± 0.2	0	51.9 ± 0.2	16.6 ± 0.7	26.1 ± 0.3				
130 to 131	O=c1cc(-c2ccccc2)c2ccc(OCCCI)cc2o1 [Compound 16, 7-(3-Iodopropoxy)-4-phenyl-2H-chromen-2-one]	91.2 ± 2.2	88.3 ± 1.4	35.6 ± 0.8	54.3 ± 0.4	12.8 ± 1.1		26.2 ± 1.4	39.5 ± 0.9	
151 to 152	CCn1c(COc2ccc3c(-c4ccccc4)cc(=O)oc3c2)nnc1S[C@@H]1O[C@H](COC(C)=O)[C@H](OC(C)=O)[C@H](OC(C)=O)[C@H]1OC(C)=O [Compound 5, 4-Phenyl-7-((4-ethyl-5-(1-(2,3,4,6-tetra-O-acetyl-β-D-galactopyranosyl)thio)-4H-1,2,4-triazol-3-yl)methoxy)-2H-chromen-2-one]	24.9 ± 0.6	18.5 ± 0.6	2.8 ± 0.2	20.6 ± 0.3	7.6 ± 0.2				
